# According to EP3925949A1, “AZIDO COMPOUNDS AND METHOD FOR MONITORING ACID CERAMIDASE ACTIVITY IN INTACT CELLS USING THEM” (Consejo Superior de Investigaciones Científicas (CSIC), priority 2020, dated 2021):
# Columns and labels:
# ACER3 = molecular target: T1, ACER3 (Mus musculus, UniProt Q9D099); test: Hydrolysis of RBM5-177 by microsomes of ACER3 overexpressing cells, UPLC-HRMS; type: biochemical; details: microsomes from ACER3 overexpressing cells, RBM5-177 5 µM, 30 min
# T1 construct: endogenous in cells; host or cells: MEF5 cells (NC-deficient)
# T1 sequence (Q9D099 1-267): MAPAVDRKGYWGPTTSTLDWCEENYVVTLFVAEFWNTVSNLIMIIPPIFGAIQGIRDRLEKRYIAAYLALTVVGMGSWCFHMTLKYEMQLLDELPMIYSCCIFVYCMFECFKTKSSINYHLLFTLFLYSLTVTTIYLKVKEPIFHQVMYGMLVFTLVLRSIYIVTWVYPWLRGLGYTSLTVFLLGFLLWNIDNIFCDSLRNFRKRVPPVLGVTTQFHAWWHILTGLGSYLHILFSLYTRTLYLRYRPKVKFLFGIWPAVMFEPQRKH
# Protocol: (§1) Cell lysates obtained from HeLa T-Rex ACER1-TET-ON, HeLa T-Rex ACER2-TET-ON and MEF5 overexpressing ACER3 cells were transferred to ultracentrifuge tubes and were spun at 100000 g for 1 h at 4°C. Pellets were resuspended in a 0.25 M saccharose solution and protein concentration was determined as specified below.
# (§2) Cells were seeded at 5 × 10^5 cells/mL into 6 well plates (1 mL/well) and were allowed to adhere for 24 h. Medium was replaced with fresh medium containing RBM5-177, RBM5-019 or RBM2-37 (5 µM final concentration). After 30 min, medium was removed; cells were washed with 400 µL PBS and harvested with 400 µL Trypsin-EDTA and 600 µL of medium. NC recombinant enzyme, lysates from A375-AC overexpressing cells, MEF5 or microsomes from HeLa T-Rex ACER1-TET-ON and HeLa T-Rex […] activity buffer. Cell pellets were resuspended with 100 µL of H2O and mixed with 750 µL of methanol: chloroform, 2:1. Samples were heated at 48°C overnight and next day, 75 µL of 1 M KOH in methanol were added, followed by 2 h incubation at 37°C. Afterwards, the saponification was neutralised with 75 µL of 1 M acetic acid and solvent was removed using a Speed Vac Savant SPD131 DDA (Thermo Scientific). […]
# ACER2 = molecular target: T2, ACER2 (Homo sapiens, UniProt Q5QJU3); test: Hydrolysis of RBM5-177 by microsomes of ACER2 overexpressing cells, UPLC-HRMS; type: biochemical; details: microsomes from ACER2 overexpressing cells, RBM5-177 5 µM, 30 min
# T2 construct: expressed in transfected cells; host or cells: HeLa T-Rex ACER2-TET-ON, tetracycline-induced; microsomes
# Protocol: as §1, §2
# [1] = molecular target: T3, alkaline ceramidases 1 (ACER1) (Homo sapiens, UniProt Q8TDN7); test: Hydrolysis of RBM5-177 by microsomes of ACER1 overexpressing cells, UPLC-HRMS; type: biochemical; details: microsomes from ACER1 overexpressing cells, RBM5-177 5 µM, 30 min
# T3 construct: expressed in transfected cells; host or cells: HeLa T-Rex ACER1-TET-ON, tetracycline-induced; microsomes
# T3 sequence (Q8TDN7 1-264): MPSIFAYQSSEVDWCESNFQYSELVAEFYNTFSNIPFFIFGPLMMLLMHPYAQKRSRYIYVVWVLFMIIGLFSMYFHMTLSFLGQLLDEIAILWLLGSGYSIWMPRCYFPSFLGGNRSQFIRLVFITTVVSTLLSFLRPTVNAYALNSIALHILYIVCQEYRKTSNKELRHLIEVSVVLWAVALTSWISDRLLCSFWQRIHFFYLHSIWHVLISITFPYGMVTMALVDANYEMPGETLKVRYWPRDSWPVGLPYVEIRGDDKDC
# Protocol: as §1, §2
# acid ceramidase (AC) = molecular target: T4, acid ceramidase (AC) (Homo sapiens, UniProt Q13510); test: AC activity-dependence of labelling (fluorescence confocal microscopy); type: cell-based; set-up: expressed in transfected cells; host or cells: FD/AC (overexpressing AC); details: FD/AC cells, SOCLAC 5 µM 1 h pretreatment, RBM5-177 5 µM 4 h
# T4 sequence (Q13510 143-395 limits assumed): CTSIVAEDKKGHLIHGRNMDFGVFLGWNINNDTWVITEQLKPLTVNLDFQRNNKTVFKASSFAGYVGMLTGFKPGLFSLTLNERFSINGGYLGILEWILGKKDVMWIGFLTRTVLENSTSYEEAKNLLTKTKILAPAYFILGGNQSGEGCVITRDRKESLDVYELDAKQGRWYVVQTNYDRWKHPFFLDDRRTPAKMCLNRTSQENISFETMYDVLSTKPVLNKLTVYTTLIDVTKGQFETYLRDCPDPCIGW
# T4 sequence (Q13510 22-142 limits assumed): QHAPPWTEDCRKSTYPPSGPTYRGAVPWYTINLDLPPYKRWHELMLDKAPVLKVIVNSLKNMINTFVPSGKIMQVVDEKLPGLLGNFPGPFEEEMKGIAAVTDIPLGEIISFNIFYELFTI
# Protocol: Cells were seeded at 1 × 10^5 cells/mL on glass-bottom plates and allowed to adhere for 24 h. For golgi staining, cells were incubated with 40 µL/well of CellLight Golgi-RFP BacMam 2.0 for 24 h. […] After this time, the medium was replaced with fresh medium containing CO-1 (1 µM final concentration), and cells were incubated for 10 min. Then cells were washed 3 times with DMEM for 5 min at 37 °C, 75 nM LysoTracker Red DND-99 or 75 nM Mitotracker in phenol red-free DMEM was added to stain lysosomes or mitochondria, and cells were kept in the incubator for microscope analysis. Staining was viewed with a Zeiss LSM 880 confocal microscope or Leica TCS SP8-Hyvolution. Image analysis was performed using Fiji software.^[7] To measure the Manders's and Pearson's coefficients a threshold including organelles and discarding the background was set. Co-localization coefficients were measured using the JaCoP plugin (S. Bolte et al. J. Microsc. 2006, 224, 213-232) on the different stacks of images (at least n=4) with each stack containing 3-10 cells.
effect on lysosome labelling by RBM5-177/CO-1 (acid ceramidase (AC)),SMILES,RBM5-19 formation (hydrolysis as substrate) (ACER3),RBM5-19 formation (hydrolysis as substrate) (ACER2),RBM5-19 formation (hydrolysis as substrate) [1]
,"CCCCCCCC(=O)N[C@@H](C)[C@H](O)CCCCCCCCCCCCN=[N+]=[N-] [RBM5-177, N-((2S,3R)-15-azido-3-hydroxypentadecan-2-yl)octanamide]",transformed into the free amine only by AC,transformed into the free amine only by AC,transformed into the free amine only by AC
no lysosomal labelling occurred,CCCCCCCCCCCCC/C=C/[C@@H](O)[C@H](CO)NC(=O)CCl [SOCLAC],,,
